One data set addresses IRAK4 (Homo sapiens (Human), UniProt Q9NWZ3). The data set can be described thus: IRAK4 MSD biochemical assay (2-hour 1 mM ATP). The settings on record: 0.1 nM IRAK4, 1 mM ATP, 2 hour at room temperature.
Data set [1] in a line: Kinetic solubility assay (CLND), pH 6.8. Format: physicochemical. The settings on record: potassium phosphate buffer pH 6.8, 2% DMSO, 24 hours at ambient temperature; for solubility kinetic at 24 h: aqueous buffer, kinetic from dmso stock.
The target of data set [2] is Human MDR1 transfected MDCK cells (Homo sapiens (Human), UniProt P08183). The data set can be described thus: MDR1-MDCK assay. Particulars: 1 μM test concentration, 120 minutes incubation.
The nature of data set [3]: Kpuu assay (in vivo brain-to-plasma unbound partition). Particulars: brain (unbound) versus plasma (unbound); intravenous infusion 4 to 24 h; unbound brain/plasma ratio; read-out: Brain Kpu, u.
A further data set addresses MDR1 (Homo sapiens (Human), UniProt P08183). The data set can be described thus: in vitro. The settings on record: MDCK-MDR1.

Values after ≈ are worked out from the molar mass of the structure shown. Structures can show the parent of a compound that is named as a salt.

IRAK4, sequence (Q9NWZ3 whole entry): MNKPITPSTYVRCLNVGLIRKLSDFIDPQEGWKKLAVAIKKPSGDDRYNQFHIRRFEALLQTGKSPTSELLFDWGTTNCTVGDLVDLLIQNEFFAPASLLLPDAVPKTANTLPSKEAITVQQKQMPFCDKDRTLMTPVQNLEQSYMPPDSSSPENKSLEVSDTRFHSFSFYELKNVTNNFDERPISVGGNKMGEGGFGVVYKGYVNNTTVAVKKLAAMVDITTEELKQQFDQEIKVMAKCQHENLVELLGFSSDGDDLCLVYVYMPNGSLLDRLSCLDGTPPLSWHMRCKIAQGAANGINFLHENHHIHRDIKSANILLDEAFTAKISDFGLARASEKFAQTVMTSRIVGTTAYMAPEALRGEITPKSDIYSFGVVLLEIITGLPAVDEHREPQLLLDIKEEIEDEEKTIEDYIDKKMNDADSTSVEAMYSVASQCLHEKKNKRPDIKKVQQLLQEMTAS
MDR1, sequence (P08183 whole entry): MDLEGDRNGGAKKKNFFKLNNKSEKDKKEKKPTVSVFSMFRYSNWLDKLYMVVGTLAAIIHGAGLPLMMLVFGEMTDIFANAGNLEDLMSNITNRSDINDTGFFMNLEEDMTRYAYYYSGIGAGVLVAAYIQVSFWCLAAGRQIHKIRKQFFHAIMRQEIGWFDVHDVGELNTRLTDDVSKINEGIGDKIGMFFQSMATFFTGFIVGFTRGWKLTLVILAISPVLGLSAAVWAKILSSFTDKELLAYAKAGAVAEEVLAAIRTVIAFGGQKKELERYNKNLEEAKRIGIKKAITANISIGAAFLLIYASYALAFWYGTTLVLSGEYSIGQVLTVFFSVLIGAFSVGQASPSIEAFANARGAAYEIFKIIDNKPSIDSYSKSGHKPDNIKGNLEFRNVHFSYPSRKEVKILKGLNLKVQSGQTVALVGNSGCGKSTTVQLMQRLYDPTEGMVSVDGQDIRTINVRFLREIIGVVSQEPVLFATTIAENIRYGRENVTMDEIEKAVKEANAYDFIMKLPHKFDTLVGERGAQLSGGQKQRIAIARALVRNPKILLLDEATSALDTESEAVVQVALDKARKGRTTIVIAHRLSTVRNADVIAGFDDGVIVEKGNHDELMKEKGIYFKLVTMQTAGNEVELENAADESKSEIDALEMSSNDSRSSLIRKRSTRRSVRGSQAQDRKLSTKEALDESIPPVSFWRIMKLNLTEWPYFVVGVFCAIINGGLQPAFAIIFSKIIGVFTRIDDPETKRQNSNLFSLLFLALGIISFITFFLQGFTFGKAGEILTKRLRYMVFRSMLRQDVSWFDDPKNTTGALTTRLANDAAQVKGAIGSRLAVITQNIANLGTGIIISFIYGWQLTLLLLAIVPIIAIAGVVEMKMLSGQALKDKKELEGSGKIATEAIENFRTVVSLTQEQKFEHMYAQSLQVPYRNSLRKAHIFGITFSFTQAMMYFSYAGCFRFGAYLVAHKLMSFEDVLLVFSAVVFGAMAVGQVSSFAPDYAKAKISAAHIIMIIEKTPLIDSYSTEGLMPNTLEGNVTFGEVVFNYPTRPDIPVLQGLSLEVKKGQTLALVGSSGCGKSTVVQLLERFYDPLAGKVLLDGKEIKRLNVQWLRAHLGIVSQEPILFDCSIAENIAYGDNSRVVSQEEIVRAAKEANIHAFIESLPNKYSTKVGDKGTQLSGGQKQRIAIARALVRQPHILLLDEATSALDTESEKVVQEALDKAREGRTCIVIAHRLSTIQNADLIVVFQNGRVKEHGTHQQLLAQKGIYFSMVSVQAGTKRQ
Human MDR1 transfected MDCK cells, sequence (P08183 whole entry, the tested form may be a part): as the sequence (P08183 whole entry) above

Compound `O=C(Nc1cccn(C2CC2)c1=O)c1cn2cc(C34COC(C3)C4)nc2nc1OC1CCC1` [Example 36, 2-(2-oxabicyclo[2.1.1]hexan-4-yl)-7-cyclobutoxy-N-(1-cyclopropyl-2-oxo-1,2-dihydropyridin-3-yl)imidazo[1,2-a]pyrimidine-6-carboxamide] came in with an IC50 against IRAK4 of 1.7 nM. Moreover, the “pH 6.8 Solubility (ug/mL)” value in data set [1] came out at 20.8 ug/mL. Moreover, the “MDR1-MDCK Efflux Ratio” value in data set [2] came out at 6.4.

Regarding `CC[C@H](C)Oc1cc2nc(C34COC(C)(C3)C4)cn2cc1C(=O)Nc1cccn(C2CC2)c1=O` [Example 19, (S)-7-(sec-butoxy)-N-(1-cyclopropyl-2-oxo-1,2-dihydropyridin-3-yl)-2-(1-methyl-2-oxabicyclo[2.1.1]hexan-4-yl)imidazo[1,2-a]pyridine-6-carboxamide], the IC50 on IRAK4 turned out to be 0.5 nM. Further, the kinetic solubility at 24 h in data set [1] was 47 µg/mL (≈ 102 µM). For the same compound, the Kpuu (unbound brain-to-plasma partition coefficient) in data set [3] amounted to 0.49. Besides, the efflux ratio at 120 min, 1 μM at MDR1 was found to be 6.

On IRAK4, `CC(C)Oc1cc2nc([C@]34CC[C@](CF)(C3)OC4)cn2cc1C(=O)Nc1cccn(C2CC2)c1=O` (single isomer, unassigned) [Example 8] yielded an IC50 of 0.3 nM. The compound also had a kinetic solubility at 24 h in data set [1] of 75.9 µg/mL (≈ 158 µM). The Kpuu (unbound brain-to-plasma partition coefficient) in data set [3] amounted to 0.49. In addition, the efflux ratio at 120 min, 1 μM on MDR1 was found to be 5.4.

The compound `CC(C)Oc1nc2nc([C@]34CC[C@](C)(C3)OC4)cn2cc1C(=O)Nc1cccn([C@H]2C[C@H]2C)c1=O` (single isomer, unassigned) [Example 186, trifluoroacetate] returned an IC50 against IRAK4 of 0.2 nM. The kinetic solubility at 24 h in data set [1] stood at 64.7 µg/mL. Further, the Kpuu (unbound brain-to-plasma partition coefficient) in data set [3] was determined as 0.32. For the same compound, at MDR1, the efflux ratio at 120 min, 1 μM came out at 10.8.

In the case of `CC(C)Oc1cc2nc(C34CC(C#N)(C3)C4)cn2cc1C(=O)Nc1cccn(C2CC2)c1=O` [Example 80, 2-(3-cyanobicyclo[1.1.1]pentan-1-yl)-N-(1-cyclopropyl-2-oxo-1,2-dihydropyridin-3-yl)-7-isopropoxyimidazo[1,2-a]pyridine-6-carboxamide], inhibition at IRAK4 was half-maximal at 0.3 nM (IC50). The kinetic solubility at 24 h in data set [1] worked out at 9.5 µg/mL (≈ 21.4 µM). For the same compound, in data set [3], the Kpuu (unbound brain-to-plasma partition coefficient) was found to be 0.9. Further, the efflux ratio at 120 min, 1 μM on MDR1 was determined as 4.9.

At IRAK4, `CC(C)Oc1cc2nc(C34COC(CF)(C3)C4)cn2cc1C(=O)Nc1cccn(C2CC2)c1=O` [Example 9, N-(1-cyclopropyl-2-oxo-1,2-dihydropyridin-3-yl)-2-(1-(fluoromethyl)-2-oxabicyclo[2.1.1]hexan-4-yl)-7-isopropoxyimidazo[1,2-a]pyridine-6-carboxamide] came in with an IC50 of 0.4 nM. In data set [1], the solubility (kinetic) at 24 h turned out to be 70.6 µg/mL (≈ 151 µM). Moreover, in data set [3], the Kpuu (unbound brain-to-plasma partition coefficient) amounted to 0.18. The efflux ratio at 120 min, 1 μM on MDR1 was 9.7.

Consider `CC(C)Oc1cc2nc([C@@]34CC[C@@](CF)(C3)OC4)cn2cc1C(=O)Nc1cccn(C2CC2)c1=O` (single isomer, unassigned) [Example 7], for which the IC50 against IRAK4 is 0.3 nM. Also, the kinetic solubility at 24 h in data set [1] stood at 79.2 µg/mL (≈ 165 µM). Moreover, the Kpuu (unbound brain-to-plasma partition coefficient) in data set [3] stood at 0.66. The efflux ratio at 120 min, 1 μM at MDR1 amounted to 5.

On IRAK4, `Cc1cnc2c(NC(=O)c3cn4cc(C56CCC(C)(CC5)OC6)nc4nc3OC(C)C)cnn2c1` [Comparator 6B, 7-isopropoxy-2-(1-methyl-2-oxabicyclo[2.2.2]octan-4-yl)-N-(6-methylpyrazolo[1,5-a]pyrimidin-3-yl)imidazo[1,2-a]pyrimidine-6-carboxamide, reference compound] yielded an IC50 of 0.2 nM. This compound also came in with a kinetic solubility at 24 h in data set [1] of 7.2 µg/mL (≈ 15.1 µM). Besides, the Kpuu (unbound brain-to-plasma partition coefficient) in data set [3] turned out to be 0. Moreover, the efflux ratio at 120 min, 1 μM on MDR1 is 1.5.

Compound `CC(C)Oc1cc2nc(C34COC(C)(C3)C4)cn2cc1C(=O)Nc1cccn(C2CC2)c1=O` [Example 6, N-(1-cyclopropyl-2-oxo-1,2-dihydropyridin-3-yl)-7-isopropoxy-2-(1-methyl-2-oxabicyclo[2.1.1]hexan-4-yl)imidazo[1,2-a]pyridine-6-carboxamide] yielded an IC50 against IRAK4 of 0.1 nM. The same compound registered a kinetic solubility at 24 h in data set [1] of 58 µg/mL (≈ 129 µM). In addition, the Kpuu (unbound brain-to-plasma partition coefficient) in data set [3] was determined as 0.27. In addition, the efflux ratio at 120 min, 1 μM on MDR1 was determined as 7.9.

For orientation: IC50 means the concentration at which inhibition is half-maximal. A lower IC50 goes with higher potency. Broadly, the kinetic solubility is solubility judged after dilution from a stock solution rather than from solid. The efflux ratio is the permeability from basolateral to apical divided by that in the opposite direction, in the common usage.

The record behind these values is US20240116922A1, “IMIDAZO[1,2-A]PYRIDINE DERIVATIVES AS IRAK4 INHIBITORS AND THEIR USE IN THE TREATMENT OF DISEASE” (BIOGEN MA INC., priority 2020, published 2024).
